Results: patent US11976042B1, “9-(5-bromo-2-hydroxyphenyl)-10-[3-(dimethylamino)propyl]-3,4,6,7,9,10-hexahydroacridine-1,8(2H,5H)-dione as an antimicrobial compound” (KING FAISAL UNIVERSITY, priority 2023, dated 2024)

What was measured:
Assay in all cases: antimicrobial activity by agar dilution
Type in all cases: cell-based
Settings in all cases: after 10, 20, 40 and 60 minutes at all dilutions 1:100 to 1:800
Candida albicans = system: Candida albicans
Procedure: (§1) The antimicrobial properties of the synthesized compound 9-(5-bromo-2-hydroxyphenyl)-10-[3-(dimethylamino)propyl]-3,4,6,7,9,10-hexahydroacridine-1,8(2H,5H)-dione were studied by the method of agar dilution. Test solutions of each compound were prepared in a concentration of 1% using dimethylformamide as a solvent. Then they were diluted in a physiological solution to obtain the final experimental dilutions 1:100, 1:200, 1:400, and 1:800. The effect of these substances were compared with furacillin in a controllable study. The testing microbes used were gram positive bacteria St. Aereus, gram negative bacteria E. Coli and Ps. Aeruginosa, and Candida albicans fungi. The experiments used for this survey were meat-pentonlu agar (EPA) for cultivation of bacteria and Saburo environment for fungi. Each experiment used 1 ml of test solution on each plate 500 min. Add 2 drops of emulsified with microbes feel. All experimental samples were taken from the agar after 10, 20, 40, 60 minutes in the environment on the basis of Patrk planted. Bacteria were cultivated at a temperature of 37° C. for 1 day and the mushroom was kept in a thermostat for […] at a temperature of 28° C. Then the results were checked.

E. Coli = system: E. Coli
Procedure: as §1

Ps. Aeruginosa = system: Ps. Aeruginosa
Procedure: as §1

St. Aereus = system: St. Aereus
Procedure: as §1

Measured: inhibition activity

CN(C)CCCN1C2=C(C(=O)CCC2)C(c2cc(Br)ccc2O)C2=C1CCCC2=O [9-(5-bromo-2-hydroxyphenyl)-10-[3-(dimethylamino)propyl]-3,4,6,7,9,10-hexahydroacridine-1,8(2H,5H)-dione]
highest inhibition activity: all assays above
